The source of these data is US5420335A, “Parenteral nutrients based on watersoluble glycerol bisacetoacetates” (priority 1993, dated 1995).

“Also recorded” adds a separate entry of the source. Like-named read-outs stand apart in the source and are kept apart here.

A short description of series [1]: Water solubility. The note with it: in words.
For series [2] the following is noted: in words; cited from earlier work.
The conditions of series [3]: in words, prior art; cited from earlier work.

Take `CC(=O)CC(=O)OCC(COC(=O)CC(C)=O)OC(=O)CC(C)=O` [trisacetoacetyl glycerol, trisacetoacetylglycerol]: in series [1], the water solubility result was “rendered water soluble when in the presence of a glycerol bisacetoacetate; also recorded: insoluble by itself in water; also recorded: surprisingly solubilized in water when in the presence of 1,2- and 1,3-bisacetoacetyl glycerol”. With `CC(=O)CC(=O)OCC(O)CO` (stereo not drawn) [monoacetoacetin, monoacetoacetylglycerol], in series [2], the metabolized in vivo entry is listed as “metabolized in vivo”. Moreover, in series [3], the water solubility entry is on record as “water soluble”.
